In patent US12285012B2, “Compositions comprising pyridine carboxylate herbicides with acetolactate synthase (ALS) inhibitor herbicides” (Corteva Agriscience LLC, priority 2018, dated 2025):

Key:
Test in all cases: Greenhouse postemergence herbicidal effect
Type in all cases: in vivo
[1] = system: nutsedge (CYPES, Cyperus esculentus)
Procedure, shortened: (§1)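 Greenhouse plants at the second–third true leaf received overhead sprays (187 L/ha) of herbicide mixtures containing safener and oil adjuvant. Percent control or crop injury was judged by eye 20–22 d later on a 0–100 scale.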

[2] = system: annual ryegrass (LOLMG=Lolium multiflorum subsp. gaudini); conditions: 10 g/ha
Procedure, shortened: as §1

[3] = system: poinsettia (EPHHL, Euphorbia heterophylla)
Procedure, shortened: as §1

[4] = system: wild oat (AVEFA, Avena fatua)
Procedure, shortened: as §1

[5] = system: Italian ryegrass (LOLMU, Lolium multiflorum); conditions: Compound A 10 g/ha; safener mefenpyr-diethyl
Procedure, shortened: as §1

[6] = system: blackgrass (ALOMY, Alopecurus myosuroides); conditions: Compound A 10 g/ha; safener mefenpyr-diethyl
Procedure, shortened: as §1

[7] = system: barnyard grass (ECHCG, Echinochloa crus-galli); conditions: Compound A 10 g/ha
Procedure, shortened: as §1

[8] = system: giant foxtail (SETFA, Setaria faberi)
Procedure, shortened: as §1

[9] = system: small-flower flatsedge (CYPDI, Cyperus difformis); conditions: Compound A 10 g/ha
Procedure, shortened: as §1

[10] = Compound A 10 g/ha, safener mefenpyr-diethyl

N#CCOC(=O)c1nc(-c2ccc3cc[nH]c3c2F)c(F)c(N)c1Cl [Compound A, cyanomethyl 4-amino-3-chloro-5-fluoro-6-(7-fluoro-1H-indol-6-yl)pyridine-2-carboxylate]
% visual injury, Obs ([1]; 10 g/ha): 45%
% visual injury ([1]; Compound A 10 g/ha): 8%
% visual injury, Obs [1, 10]: 28%
CYPES % visual injury Obs [1, 10]: 28%
% visual injury, Obs [2]: 3%
% visual injury, Obs ([3]; 10 g/ha): 83%
% visual injury ([3]; Compound A 10 g/ha): 97%
% visual injury, Obs ([4]; 10 g/ha): 0%
% visual injury, Obs [4, 10]: 0%
AVEFA % visual injury Obs [4, 10]: 0%
% visual injury, Obs [5]: 10%
LOLMU % visual injury Obs [5]: 10%
% visual injury, Obs [6]: 13%
ALOMY % visual injury Obs [6]: 13%
% visual injury Obs [7]: 85%
% visual injury, Obs ([7]; safener mefenpyr-diethyl): 85%
ECHCG % visual injury Obs ([7]; safener mefenpyr-diethyl): 85%
% visual injury, Obs ([8]; 10 g/ha): 0%
% visual injury, Obs [8, 10]: 80%
SETFA % visual injury Obs [8, 10]: 80%
% visual injury Obs [9]: 72%
